Source: patent US11666608B2 (priority 2020, dated 2023)

Tested on: neutrophils isolated from peripheral blood
Assay: Neutrophil activation by E. coli EVs, neutrophil elastase secretion (ELISA)
Format: cell-based
Details: human neutrophils treated with E. coli EVs and test substance 24 hours, FIG. 8
Protocol: Specifically, 10 mL of blood was collected in a tube containing an ACD solution, the blood was carefully added over 20 mL of Lymphoprep and centrifuged. After centrifugation, a red blood layer was collected and mixed with 12 mL of dextran, followed by standing at room temperature for 45 minutes. After layer separation, 40 mL of 1×HBSS was added to the supernatant and centrifuged again, and red blood cells were removed with autoclaved Millipore water, and then neutrophils were isolated using a neutrophil isolation kit (MACS). […] As a positive control drug, dexamethasone (Dex) was treated.

Compound: C[C@@H]1C[C@H]2[C@@H]3CCC4=CC(=O)C=C[C@]4(C)[C@@]3(F)[C@@H](O)C[C@]2(C)[C@@]1(O)C(=O)CO [dexamethasone]
- secretion of NE (neutrophil elastase), neutrophil activation indicator: did not inhibit
